This note sets out measurements from US10512665B2, “Methods and compositions related to inhibition of viral entry” (University of Utah Research Foundation, priority 2007, dated 2019).

Where two headings read alike, the source gives them in different places.

One experiment has as its system JRFL. In words: Viral infectivity (pseudovirion entry) assay, primary strain JRFL. The class given is cell-based, HIV-1. The method, then: While HXB2 is a commonly used lab-adapted HIV-1 isolate, it is often more vulnerable to inhibition than primary clinical HIV-1 isolates. […] Bianchi 2005).
All studies were done using the HXB2 strain unless otherwise specified. Viral infectivity was measured essentially as previously described (Hamburger 2005) with several modifications. 8 μg/mL DEAE-Dextran was used as a fusion enhancer in all assays. Media was changed 22-26 h following infection. […] Fits were weighted by the absolute s.e.m. from quadruplicate points with the minimum allowable error set to 1%.

The test system of another experiment is HXB2 strain. As to the kind of experiment: Single-cycle viral infectivity (viral entry) assay, HXB2 strain.
The mark [1] stands for this setting: JRFL pseudovirion entry, Table 4, read-out: IC50 (nM) (JRFL).
Setting [2] is: read-out: IC50 (nM) (HXB2), HXB2 pseudovirion entry, Table 4.
[3] abbreviates: read-out: IC50, inhibition of viral entry, HXB2.
The mark [4] stands for this setting: JRFL, read-out: IC50 against primary isolate JRFL.
The mark [5] stands for this setting: read-out: IC50 (μM) (HXB2), HXB2 viral entry, Table 3.

Broadly, the IC90 is the point of the concentration-response curve where the effect stands at 90%. In general, IC50 refers to the midpoint of a concentration-inhibition curve.

Procedure for HXB2 strain: All studies were done using the HXB2 strain unless otherwise specified. […] 8 μg/mL DEAE-Dextran was used as a fusion enhancer in all assays. Media was changed 22-26 h following infection. […] Fits were weighted by the absolute s.e.m. from quadruplicate points with the minimum allowable error set to 1%.

In turn, `Cc1ccc(-c2ccc3c(c2)C=C(C(=O)Nc2ccc(C[N+](C)(C)C4CCOCC4)cc2)CCC3)cc1` [TAK779, reference compound] yielded an IC90 in the experiment with JRFL (CCR5 co-receptor inhibitor, JRFL entry assay) of 100 nM.
With GACDYPEWQWLCAAGK [PIE7-GK], the figures for the IC50 in the experiment with JRFL (setting [1]) and in the experiment with HXB2 strain (setting [2]) were 15800 nM and 389 nM, respectively. In addition, the “inhibitory potency compared in words” value in the experiment on HXB2 strain was “slightly enhanced potency”.
For the molecule GACDYPEWQWLCAAGKK [PIE7-GKK], the IC50 in the experiment with JRFL (setting [1]) came to 19100 nM; with HXB2 strain (setting [2]), 382 nM.
The corresponding values for HACDYPEWQWLCELGK [PIE15] are 1450 nM and 66.7 nM.
With HPCDYPEWQWLCELGK [PIE12], the IC50 in the experiment on JRFL (setting [1]) came out at 578 nM.
Regarding HPCDYPEWQWLCKLGK [PIE13], the IC50 in the experiment on JRFL (setting [1]) was determined as 1470 nM; in the experiment on HXB2 strain (setting [2]), 41.3 nM.
The corresponding values for HPCDYPEWQWLCRLGK [PIE14] are 1050 nM and 33.1 nM.
Consider KGACDYKEWQWLCAA [PIE8], for which the IC50 with HXB2 strain (setting [3]) came to 1680 nM.
In the case of KGACDYPEWQWLCAA [PIE7], the “reduction in potency against JRFL” value with JRFL (JRFL compared with HXB2) is on record as roughly 40 fold. Further, the IC50 worked out at 24000 nM in the experiment with JRFL (setting [1]); 24400 nM with JRFL (setting [4]); 620 nM in the experiment on HXB2 strain (setting [2]); 620 nM with HXB2 strain (setting [5]); 620 nM with HXB2 strain (setting [3]). Also, the “improvement of potency on addition of TAK779” value in the experiment on JRFL (JRFL, addition of 100 nM TAK779) was “more than 3 fold”. Further, the “more potent than D10-p5” value in the experiment on HXB2 strain (HXB2, compared with D10-p5) is roughly 15 fold. Further, the “inhibitory activity in combination with Fuzeon” value in the experiment on HXB2 strain (against viral entry, with Fuzeon) is listed as “at least additive”.
In the case of KGACDYPEWQWLCAAGK [K-PIE7-GK], the IC50 in the experiment on JRFL (setting [1]) was 14800 nM.
For KGACDYPEWRWLCAA [PIE2], the IC50 in the experiment on HXB2 strain (setting [3]) came out at 1320 nM.
In the case of KGACDYPEWRWLCAAA [PIE2-AAA], the “inhibitory potency compared in words” value with HXB2 strain is recorded as “nearly indistinguishable from the potency of PIE2”. Also, the half-maximal inhibitory concentration (IC50) in the experiment with HXB2 strain (setting [5]) stood at 1440 nM.
In the case of KKGACDYPEWRWLCAA [2K-PIE2], the “less potent than PIE2” value in the experiment with HXB2 strain (HXB2, compared with PIE2) is on record as roughly 2 fold. In addition, in the experiment on HXB2 strain (setting [5]), the IC50 worked out at 2570 nM.
For the molecule “KKGACELLGWEWAWLCAA [D10-p5, reference compound]”, the “inhibition of infection of cells” value in the experiment with HXB2 strain (infectivity assay) was “inhibit infection of cells”. Further, the IC50 in the experiment with HXB2 strain (setting [5]) was determined as 9510 nM.
As to KKGACESPEWRWLCAA [2K-PIE1], in the experiment with HXB2 strain (setting [5]), the IC50 worked out at 2220 nM.
Consider PEG-(KGACDYPEWQWLCAA)2 [PEG-(PIE7)2], for which the IC50 is 2300 nM with JRFL (setting [4]); 1.9 nM in the experiment with HXB2 strain (setting [2]); 1.9 nM with HXB2 strain (setting [5]); 1.9 nM in the experiment on HXB2 strain (read-out: IC50 of dimeric inhibitors, HXB2). Besides, the “inhibitory potency compared in words” value in the experiment on HXB2 strain is given as “comparable to Fuzeon”. In the experiment with HXB2 strain (HXB2, dimer vs monomer), the “improvement in IC50 over the corresponding monomer” value is on record as roughly 325 fold.
Consider “enfuvirtide [Fuzeon, reference compound]”, for which the IC50 with JRFL (setting [1]) is 5 nM; in the experiment on HXB2 strain (setting [2]) it was 3.7 nM; with HXB2 strain (setting [5]), 3.7 nM.
